Source: article PMC10254170, “Diastereoselective Synthesis of the Borylated D-Galactose Monosaccharide 3-Boronic-3-Deoxy-D-Galactose and Biological Evaluation in Glycosidase Inhibition and in Cancer for Boron Neutron Capture Therapy (BNCT)” (Molecules, 2023)
Read-outs that look alike come from different tables or passages of the source.

How the values were obtained:
[1] = biological target: T1, Aspergillus niger amyloglucosidase (Aspergillus niger, UniProt P69328); assay: Glycosidase inhibition, A. niger amyloglucosidase; format: biochemical
T1 construct: purchased Sigma-Aldrich Co
T1 sequence (P69328 25-640): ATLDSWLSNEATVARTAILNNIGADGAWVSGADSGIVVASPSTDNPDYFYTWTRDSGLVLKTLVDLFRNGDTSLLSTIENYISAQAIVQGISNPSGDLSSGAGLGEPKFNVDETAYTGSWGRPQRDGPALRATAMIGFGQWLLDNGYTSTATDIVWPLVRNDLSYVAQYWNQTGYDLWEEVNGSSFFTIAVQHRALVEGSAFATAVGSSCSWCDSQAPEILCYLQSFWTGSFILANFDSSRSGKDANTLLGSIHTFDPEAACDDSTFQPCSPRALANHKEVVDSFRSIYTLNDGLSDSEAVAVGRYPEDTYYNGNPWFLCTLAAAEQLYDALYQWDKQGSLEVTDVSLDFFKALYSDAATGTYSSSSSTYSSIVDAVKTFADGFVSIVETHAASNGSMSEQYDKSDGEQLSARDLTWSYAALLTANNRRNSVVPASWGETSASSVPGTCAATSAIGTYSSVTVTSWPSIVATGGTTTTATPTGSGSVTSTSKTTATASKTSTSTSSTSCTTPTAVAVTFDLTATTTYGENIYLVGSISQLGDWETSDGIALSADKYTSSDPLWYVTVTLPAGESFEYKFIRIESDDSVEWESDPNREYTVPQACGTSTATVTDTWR
Description: (§1) Glycosidase modulation studies need to explore selectivity as well as potency. Our drugs and controls are therefore screened against a panel of glycosidases in methanol (Table 1) to identify the glycosidase-related disease area(s), selectivity profile, and potency of biological action for each drug. The presence of organic boron covalently bonded to the drug structure also grants a reduced toxicity profile. Following the glycosidase inhibition range recommendations, an IC50 value >250 μm denotes weak inhibition, 100–249 μm denotes moderate inhibition, 10–99 μm good inhibition, 0.1–9 μm potent inhibition, and <0.1 μm very potent inhibition. […] Our boronated D-galactose 7 represents a novel lead in glycosidase inhibition.
(§2) The glycosidases screened are the following: rice α-glucosidase, yeast α-glucosidase, Bacillus α-glucosidase, rat intestinal maltase α-glucosidase, almond β-glucosidase, bovine liver β-glucosidase, coffee beans α-galactosidase, bovine liver β-galactosidase, Jack bean α-mannosidase, snail β-mannosidase, Penicillium decumbens α-L-rhamnosidase, bovine kidney α-L-fucosidase, Eschierichia coli β-glucuronidase, bovine liver β-glucuronidase, porcine kidney trehalase, Aspergillus niger amyloglucosidase, and bovine kidney N-acetyl-β-glucosaminidase. The disease areas for each glycosidase are summarized in [1].
(§3) The enzymes α-glucosidase (from yeast), β-glucosidases (from almond and bovine liver), α-galactosidase (from coffee beans), β-galactosidase (from bovine liver), α-mannosidase (from Jack bean), β-mannosidase (from snail), α-L-rhamnosidase (from Penicillium decumbens), α-L-fucosidase (from bovine kidney), trehalase (from porcine kidney), β-glucuronidases (from E. coli and bovine liver), amyloglucosidase (from A. niger), para-nitrophenyl glycosides, and various disaccharides were purchased from Sigma-Aldrich Co.
(§4) Brush border membranes were prepared from the rat small intestine according to the method of Kessler et al. and were assayed at pH 6.8 for rat intestinal maltase using maltose. For rat intestinal maltase, porcine kidney trehalase, and A. niger amyloglucosidase activities, the reaction mixture contained 25 mM maltose and the appropriate amount of enzyme, and the incubations were performed for 10–30 min at 37 °C. The reaction was stopped by heating at 100 °C for 3 min. After centrifugation (600 g; 10 min), the resulting reaction mixture was added to the Glucose CII-test Wako (Wako Pure Chemical Ind., Osaka, Japan). The absorbance at 505 nm was measured to determine the amount of the released D-glucose. Other glycosidase activities were determined using an appropriate para-nitrophenyl glycoside as substrate at the optimum pH of each enzyme. The reaction mixture contained 2 mM of the substrate and the appropriate amount of enzyme. The reaction was stopped by the addition of 400 mM Na2CO3. The released para-nitrophenol was measured spectrometrically at 400 nm. All reactions run in methanol.

almond β-glucosidase = assay: Glycosidase inhibition, almond β-glucosidase; format: biochemical; conditions: for inhibition %: in methanol
Description: as §1, §2, §3, §4

[2] = test system: MCF10A (non-tumor-derived normal breast cell line); assay: Cancer screening (MTT growth inhibition), MCF10A; format: cell-based; conditions: 72 h; for Percentage (%) cell growth inhibition / inhibition at 25 µM: 25 µM of drug, n = 3, mean ± SEM; for inhibition at 25 µM: read-out: Percentage (%) cell growth inhibition
Experimental: (§5) All test agents were prepared as stock solutions (20 mM) in dimethyl sulfoxide (DMSO) and stored at −20 °C. Cell lines used in the study included: HT29 (colorectal carcinoma), U87 and SJ-G2 (glioblastoma), MCF-7 (breast carcinoma), A2780 (ovarian carcinoma), H460 (lung carcinoma), A431 (skin carcinoma), Du145 (prostate carcinoma), BE2-C (neuroblastoma), MiaPaCa-2 (pancreatic carcinoma), SMA560 (spontaneous murine astrocytoma), and ADDP (Cis Res Ovarian), together with one non-tumor-derived normal breast cell line (MCF10A). All cell lines were incubated in a humidified atmosphere with 5 % CO2 at 37 °C. The cancer cell lines were maintained in Dulbecco’s modified Eagle’s medium (DMEM; Sigma, Australia) supplemented with fetal bovine serum (10%), sodium pyruvate (10 mM), penicillin (100 IUmL^−1), streptomycin (100 µg mL^−1), and L-glutamine (2 mM).
The non-cancer MCF10A cell line was maintained in DMEM:F12 (1:1) cell culture media, 5% heat inactivated horse serum, and supplemented with penicillin (50 IUmL^−1), streptomycin (50 µg mL^−1), HEPES (20 mM), L-glutamine (2 mM), epidermal growth factor (20 ng mL^−1), hydrocortisone (500 ng mL^−1), cholera toxin (100 ng mL^−1), and insulin ([…]).
(§6) Growth inhibition was determined by plating cells in duplicate in medium (100 µL) at a density of 2500–4000 cells per well in 96-well plates. On day 0 (24 h after plating), when the cells are in logarithmic growth, medium (100 µL) with or without the test agent was added to each well. After 72 h of drug exposure, growth inhibitory effects were evaluated using the (3-(4,5-dimethyltiazol-2-yl)-2,5-diphenyltetrazolium bromide) (MTT) assay and absorbance read at 540 nm. The percentage growth inhibition was calculated at a fixed concentration of 25 µM, based on the difference between the optical density values on day 0 and those at the end of drug exposure. Each data point is the mean ± the standard error of the mean (SEM) calculated from three replicates, which were performed on separate occasions and in separate cell line passages.

snail β-mannosidase = assay: Glycosidase inhibition, snail β-mannosidase; format: biochemical; conditions: for inhibition %: in methanol
Description: as §1, §2, §3, §4

[3] = test system: bovine liver β-glucosidase; assay: Glycosidase inhibition, bovine liver β-glucosidase; format: biochemical; conditions: for inhibition %: in methanol
Description: as §1, §2, §3, §4

Solubility in water = format: physicochemical
[4] = test system: all cell lines (cancer cell lines and normal cell line); assay: Cancer screening, all cell lines; format: cell-based; conditions: all cancer cell lines and the normal cell line
Experimental: as §5, with “The cancer cell lines were maintained in Dulbecco’s modified Eagle’s medium (DMEM; Sigma, Australia) supplemented with fetal bovine serum (10%), sodium pyruvate (10 mM), penicillin (100 IUmL^−1), streptomycin (100 µg mL^−1), and L-glutamine (2 mM).” left out
as §6, with “On day 0 (24 h after plating), when the cells are in logarithmic growth, medium (100 µL) with or without the test agent was added to each well.” left out

[5] = test system: ADDP (Cis Res Ovarian) cell line; assay: Cancer screening (MTT growth inhibition), ADDP; format: cell-based
Experimental: as §5, with “The cancer cell lines were maintained in Dulbecco’s modified Eagle’s medium (DMEM; Sigma, Australia) supplemented with fetal bovine serum (10%), sodium pyruvate (10 mM), penicillin (100 IUmL^−1), streptomycin (100 µg mL^−1), and L-glutamine (2 mM).” left out
as §6, with “On day 0 (24 h after plating), when the cells are in logarithmic growth, medium (100 µL) with or without the test agent was added to each well.” left out

[6] = at 100 μM, in methanol, read-out: inhibition %
[7] = at 100 μM, read-out: NI: No inhibition

Compound: N[C@@H](Cc1ccc(B(O)O)cc1)C(=O)O [^10B-BPA]
- inhibition % ([1]; at 100 μM, in methanol): 0%
- NI: No inhibition (almond β-glucosidase; at 100 μM): NI (No inhibition (less than 50% inhibition at 100 μM))
- inhibition % (almond β-glucosidase; at 100 μM): 0%
- Percentage (%) cell growth inhibition [2]: <0%
- NI: No inhibition (snail β-mannosidase; at 100 μM): NI (No inhibition (less than 50% inhibition at 100 μM))
- inhibition % (snail β-mannosidase; at 100 μM): 0.3%
- NI: No inhibition ([3]; at 100 μM): NI (No inhibition (less than 50% inhibition at 100 μM))
- inhibition % ([3]; at 100 μM): 14.2%

Compound: CC1(C)OCC(C2OC3OC(C)(C)OC3C2[B-]23OCC[NH+]2CCO3)O1 [Compound 6, 3-Deoxy-3-Boronodiethanolamine-1,2:5,6-Di-O-isopropylidene-α-D-galactofuranose]
- inhibition at 100 µM [1, 6]: 0%
- inhibition at 100 µM [1, 7]: < 50%
- NI: No inhibition (almond β-glucosidase; at 100 μM): NI (No inhibition (less than 50% inhibition at 100 μM))
- inhibition % (almond β-glucosidase; at 100 μM): 0.3%
- solubility in water (Solubility in water): soluble in water
- GI50 [4]: > 50 µM
- inhibition at 25 µM ([2]; Homo sapiens, MCF-10A): 5 ± 1%
- NI: No inhibition (snail β-mannosidase; at 100 μM): NI (No inhibition (less than 50% inhibition at 100 μM))
- inhibition % (snail β-mannosidase; at 100 μM): 0%
- NI: No inhibition ([3]; at 100 μM): NI (No inhibition (less than 50% inhibition at 100 μM))
- inhibition % ([3]; at 100 μM): 12.2%

Compound: OCC1OC(O)C(O)C(B(O)O)C1O [Compound 7, 3-Boronic-3-Deoxy-D-galactose]
- inhibition at 1000 µM ([1]; at 1000 μM, in methanol, read-out: inhibition %): 1.5%
- inhibition at 1000 µM ([1]; at 1000 μM, read-out: NI: No inhibition): < 50%
- NI: No inhibition (almond β-glucosidase; at 1000 μM): NI (No inhibition (less than 50% inhibition at 1000 μM))
- inhibition % (almond β-glucosidase; at 1000 μM): 1.3%
- solubility in water (Solubility in water): soluble in water
- GI50 [4]: > 50 µM
- inhibition at 25 µM ([2]; Homo sapiens, MCF-10A): 7 ± 3%
- GI50 ([2]; Homo sapiens, MCF-10A, dose response, read-out: GI50 = Concentration that inhibits cell growth by 50%): > 50 µM
- NI: No inhibition (snail β-mannosidase; at 1000 μM): NI (No inhibition (less than 50% inhibition at 1000 μM))
- inhibition % (snail β-mannosidase; at 1000 μM): 0%
- NI: No inhibition ([3]; at 1000 μM): NI (No inhibition (less than 50% inhibition at 1000 μM))
- inhibition % ([3]; at 1000 μM): 12.6%
- inhibition at 25 µM ([5]; 25 µM of drug, 72 h, MTT): 2%
- GI50 ([5]; dose response, unit from table title): > 50 µM

Compound: N[C@@H](Cc1ccc(B(O)O)cc1)C(=O)O [BPA, 4-borono-L-phenylalanine]
- inhibition at 100 µM [1, 6]: 0%
- inhibition at 100 µM [1, 7]: < 50%
- NI: No inhibition (almond β-glucosidase; at 100 μM): NI (No inhibition (less than 50% inhibition at 100 μM))
- inhibition % (almond β-glucosidase; at 100 μM): 0%
- inhibition at 25 µM ([2]; Homo sapiens, MCF-10A): 4 ± 1%
- NI: No inhibition (snail β-mannosidase; at 100 μM): NI (No inhibition (less than 50% inhibition at 100 μM))
- inhibition % (snail β-mannosidase; at 100 μM): 2.1%
- NI: No inhibition ([3]; at 100 μM): NI (No inhibition (less than 50% inhibition at 100 μM))
- inhibition % ([3]; at 100 μM): 0%

Compound: Borocaptate sodium [BSH]
- inhibition % ([1]; at 1000 μM, in methanol): 0%
- NI: No inhibition (almond β-glucosidase; at 1000 μM): NI (No inhibition (less than 50% inhibition at 1000 μM))
- inhibition % (almond β-glucosidase; at 1000 μM): 0%
- Percentage (%) cell growth inhibition [2]: 8 ± 3%
- NI: No inhibition (snail β-mannosidase; at 1000 μM): NI (No inhibition (less than 50% inhibition at 1000 μM))
- inhibition % (snail β-mannosidase; at 1000 μM): 19.2%
- NI: No inhibition ([3]; at 1000 μM): NI (No inhibition (less than 50% inhibition at 1000 μM))
- inhibition % ([3]; at 1000 μM): 15%
